Assay results from patent US20230373939A1 (VERTEX PHARMACEUTICALS INCORPORATED, priority 2020, published 2023).
Like-named read-outs stand apart in the source and are kept apart here.

Biological target: T1, F508del in NIH 3T3 cells (Homo sapiens, UniProt P13569, DEL508-508)
T1 construct: expressed in transfected cells
Test: 3T3 assay: membrane potential optical assay for F508del correction
Format: cell-based
Details: for EC50: read-out: 3T3 EC50
Excerpt: 1. Membrane Potential Optical Methods for Assaying F508del Modulation Properties of Compounds
The assay utilizes fluorescent voltage sensing dyes to measure changes in membrane potential using a fluorescent plate reader (e.g., FLTPR III, Molecular Devices, Inc.) as a readout for increase in functional F508del in NIH 3T3 cells. The driving force for the response is the creation of a chloride ion gradient in conjunction with channel activation by a single liquid addition step after the cells have previously been treated with compounds and subsequently loaded with a voltage sensing dye.
2. Identification of Corrector Compounds
To identify correctors of F508del, a single-addition HTS assay format was developed. This HTS assay utilizes fluorescent voltage sensing dyes to measure changes in membrane potential on the FLIPR III as a measurement for increase in gating (conductance) of F508del in F508del NUT 3T3 cells. The F508del NUT 3T3 cell cultures were incubated with the corrector compounds at a range of concentrations for 18-24 hours at 37° C., and subsequently loaded with a redistribution dye. The driving force for the response is a Cl^− ion gradient in conjunction with channel activation with forskolin in a single liquid addition step using a fluorescent plate reader such as FLIPR III.
Bath Solution #1: (in mM) NaCl 160, KCl 4.5, CaCl2 2, MgCl2 1, HEPES 10, pH 7.4 with NaOH.
Chloride-free bath solution: Chloride salts in Bath Solution #1 (above) are substituted with gluconate salts.
NIH3T3 mouse fibroblasts stably expressing F508del were used for optical measurements of membrane potential. The cells were maintained at 37° C. in 5% CO2 and 90% humidity in Dulbecco's modified Eagle's medium supplemented with 2 mM glutamine, 10% fetal bovine serum, 1×NEAA, b-ME, 1×pen/strep, and 25 mM HEPES in 175 cm^2 culture flasks. For all optical assays, the cells were seeded at ˜20,000/well in 384-well Matrigel-coated plates. For the correction assays, the cells were cultured at 37° C. with and without compounds for 16-24 hours.

[1] = NIH3T3, NIH 3T3 cells, F508del, read-out: 3T3 Max Activity (%)
[2] = NIH3T3, read-out: 3T3 Max Activity (%)

T1 sequence (P13569 with tags, fused parts or gaps DEL508-508): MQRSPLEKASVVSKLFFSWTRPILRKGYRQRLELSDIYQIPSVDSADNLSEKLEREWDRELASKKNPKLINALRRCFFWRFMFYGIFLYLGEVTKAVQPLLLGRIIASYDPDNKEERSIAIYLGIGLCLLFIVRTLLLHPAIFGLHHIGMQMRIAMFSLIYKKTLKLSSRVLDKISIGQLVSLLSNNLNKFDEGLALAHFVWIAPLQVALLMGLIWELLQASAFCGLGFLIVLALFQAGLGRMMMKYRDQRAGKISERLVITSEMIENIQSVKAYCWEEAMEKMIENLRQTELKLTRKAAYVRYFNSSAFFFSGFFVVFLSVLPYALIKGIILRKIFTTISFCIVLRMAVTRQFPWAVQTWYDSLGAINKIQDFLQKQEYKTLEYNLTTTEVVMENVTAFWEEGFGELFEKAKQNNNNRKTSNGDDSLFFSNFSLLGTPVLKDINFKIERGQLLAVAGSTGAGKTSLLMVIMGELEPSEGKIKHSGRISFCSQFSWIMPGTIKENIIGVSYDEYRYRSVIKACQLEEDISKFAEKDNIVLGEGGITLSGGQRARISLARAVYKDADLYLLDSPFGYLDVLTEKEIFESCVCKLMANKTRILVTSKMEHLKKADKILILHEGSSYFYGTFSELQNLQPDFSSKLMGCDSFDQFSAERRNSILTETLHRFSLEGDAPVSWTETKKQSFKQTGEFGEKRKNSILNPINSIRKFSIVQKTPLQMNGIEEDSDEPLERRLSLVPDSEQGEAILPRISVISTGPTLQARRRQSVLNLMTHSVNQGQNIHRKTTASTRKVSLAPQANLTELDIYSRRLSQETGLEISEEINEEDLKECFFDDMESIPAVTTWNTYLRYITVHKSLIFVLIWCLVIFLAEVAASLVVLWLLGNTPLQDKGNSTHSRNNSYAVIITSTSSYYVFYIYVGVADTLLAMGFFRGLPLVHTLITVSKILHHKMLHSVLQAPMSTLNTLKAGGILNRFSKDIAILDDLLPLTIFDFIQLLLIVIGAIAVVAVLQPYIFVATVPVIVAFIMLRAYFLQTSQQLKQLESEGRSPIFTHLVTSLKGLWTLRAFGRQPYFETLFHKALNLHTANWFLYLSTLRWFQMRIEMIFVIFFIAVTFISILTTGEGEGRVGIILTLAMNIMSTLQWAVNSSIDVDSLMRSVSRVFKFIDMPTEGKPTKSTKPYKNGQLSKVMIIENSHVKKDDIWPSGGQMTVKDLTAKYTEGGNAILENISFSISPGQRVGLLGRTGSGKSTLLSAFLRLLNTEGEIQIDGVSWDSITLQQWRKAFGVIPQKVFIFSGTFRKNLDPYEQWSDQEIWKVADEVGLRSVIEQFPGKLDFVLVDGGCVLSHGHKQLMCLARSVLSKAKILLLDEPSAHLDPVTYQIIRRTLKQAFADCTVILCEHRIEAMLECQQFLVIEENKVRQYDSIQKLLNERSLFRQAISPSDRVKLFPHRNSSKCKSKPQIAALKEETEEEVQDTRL

Structure (SMILES)	Emax [1] [%]	EC50 (NIH 3T3 cells, F508del) [µM]	Emax [2] [%]
Cc1sc(NS(=O)(=O)c2ccccc2)nc1-c1ccc2c(c1)OCCO2 [Compound 22, N-[4-(2,3-dihydro-1,4-benzodioxin-6-yl)-5-methyl-thiazol-2-yl]benzenesulfonamide]	30 to 60	3 to 30	
O=S(=O)(Nc1ncc(Cc2cnccn2)s1)c1ccccc1 [Compound 31, N-[5-(pyrazin-2-ylmethyl)thiazol-2-yl]benzenesulfonamide]	< 30		
Nc1cccc(S(=O)(=O)Nc2nc(-c3ccccc3)c(Cc3cccc(C(=O)O)c3)s2)c1 [Compound 28, 3-[[2-[(3-aminophenyl)sulfonylamino]-4-phenyl-thiazol-5-yl]methyl]benzoic acid]	< 30		
Cc1cc(C)c(-n2nc(NS(=O)(=O)c3ccccc3)cc2CC(C)C)c(C)c1 [Compound 52, N-[5-isobutyl-1-(2,4,6-trimethylphenyl)pyrazol-3-yl]benzenesulfonamide]	> 60	1 to 3	
O=S(=O)(Nc1nc(-c2ccc(Cl)cc2)c(S(=O)(=O)c2ccccc2)s1)c1ccccc1 [Compound 16, N-[5-(benzenesulfonyl)-4-(4-chlorophenyl)thiazol-2-yl]benzenesulfonamide]	30 to 60	1 to 3	
CCCc1sc(NS(=O)(=O)c2ccccc2)nc1-c1ccc(OC)cc1 [Compound 20, N-[4-(4-methoxyphenyl)-5-propyl-thiazol-2-yl]benzenesulfonamide]	> 60	1 to 3	
CC(C)(C)CCNC(=O)c1sc(NS(=O)(=O)c2ccccc2)nc1-c1ccccc1 [Compound 15, 2-(benzenesulfonamido)-N-(3,3-dimethylbutyl)-4-phenyl-thiazole-5-carboxamide]	30 to 60	3 to 30	
O=S(=O)(Nc1nc(-c2ccccc2)c(-c2ccccc2)s1)c1ccccc1 [Compound 7, N-(4,5-diphenylthiazol-2-yl)benzenesulfonamide]		1 to 3	> 60
O=S(=O)(Nc1ccn(Cc2ccccc2)n1)c1ccccc1 [Compound 102, N-(1-benzylpyrazol-3-yl)benzenesulfonamide]			< 30
Cc1cc(C)c(-n2nc(NS(=O)(=O)c3ccccc3)cc2C(C)C)c(C)c1 [Compound 66, N-[5-isopropyl-1-(2,4,6-trimethylphenyl)pyrazol-3-yl]benzenesulfonamide]	30 to 60	1 to 3	
Cc1cc(C)c(-n2nc(NS(=O)(=O)c3ccccc3)cc2-c2ccc(Oc3ccccc3)cc2)c(C)c1 [Compound 49, N-[5-(4-phenoxyphenyl)-1-(2,4,6-trimethylphenyl)pyrazol-3-yl]benzenesulfonamide]		< 1	30 to 60
O=C(c1sc(NS(=O)(=O)c2ccccc2)nc1-c1ccccc1)N1CCCCC1 [Compound 34, N-[4-phenyl-5-(piperidine-1-carbonyl)thiazol-2-yl]benzenesulfonamide]	< 30		
Cc1cc(C)c(-n2nc(NS(=O)(=O)c3ccccc3)cc2C(C)(C)C)c(C)c1 [Compound 53, N-[5-tert-butyl-1-(2,4,6-trimethylphenyl)pyrazol-3-yl]benzenesulfonamide]	< 30		
COc1ccccc1Cc1cnc(NS(=O)(=O)c2ccccc2)o1 [Compound 4, N-[5-[(2-methoxyphenyl)methyl]oxazol-2-yl]benzenesulfonamide]	< 30		
Cc1cc(C)c(-n2nc(NS(=O)(=O)c3ccccc3)cc2Br)c(C)c1 [Compound 67, N-[5-bromo-1-(2,4,6-trimethylphenyl)pyrazol-3-yl]benzenesulfonamide]	> 60	1 to 3	
Cc1sc(NS(=O)(=O)c2ccccc2)nc1-c1ccncc1 [Compound 43, N-[5-methyl-4-(4-pyridyl)thiazol-2-yl]benzenesulfonamide]	< 30		
Cc1nc(NS(=O)(=O)c2ccccc2)sc1-c1csc(Nc2ncccn2)n1 [Compound 44, N-[4-methyl-5-[2-(pyrimidin-2-ylamino)thiazol-4-yl]thiazol-2-yl]benzenesulfonamide]	< 30		
Cc1nc(NS(=O)(=O)c2ccccc2)sc1-c1ccccc1 [Compound 26, N-(4-methyl-5-phenyl-thiazol-2-yl)benzenesulfonamide]		1 to 3	> 60
Cc1cc(C)c(-n2nc(NS(=O)(=O)c3ccccc3)cc2C2=CCCCC2)c(C)c1 [Compound 63, N-[5-(cyclohexen-1-yl)-1-(2,4,6-trimethylphenyl)pyrazol-3-yl]benzenesulfonamide]	> 60	1 to 3	
CCCc1nc(NS(=O)(=O)c2ccccc2)sc1C [Compound 47, N-(5-methyl-4-propyl-thiazol-2-yl)benzenesulfonamide]	< 30		
CCCc1sc(NS(=O)(=O)c2ccccc2)nc1-c1cc(C)ccc1C [Compound 18, N-[4-(2,5-dimethylphenyl)-5-propyl-thiazol-2-yl]benzenesulfonamide]	> 60	< 1	
O=S(=O)(Nc1nn(-c2ccccc2)cc1Cc1ccccc1)c1ccccc1 [Compound 74, N-(4-benzyl-1-phenyl-pyrazol-3-yl)benzenesulfonamide]	< 30		

Continued, in another order:

Emax [1] [%]	EC50 (NIH 3T3 cells, F508del) [µM]	Structure (SMILES)	Emax [2] [%]
< 30		O=S(=O)(Nc1nn(-c2ccccc2)cc1C1CCCCC1)c1ccccc1 [Compound 84, N-(4-cyclohexyl-1-phenyl-pyrazol-3-yl)benzenesulfonamide]	
30 to 60		O=S(=O)(Nc1nn(Cc2ccccc2)cc1-c1ccc(Cl)cc1)c1ccccc1 [Compound 108, N-[1-benzyl-4-(4-chlorophenyl)pyrazol-3-yl]benzenesulfonamide]	
> 60	3 to 30	Cc1cccc(-c2nc(NS(=O)(=O)c3ccccc3)cc(C)c2C)c1C [Compound 158]	
< 30		Cc1ccccc1-c1cn(-c2cccc(Cl)c2)nc1NS(=O)(=O)c1ccccc1 [Compound 95, N-[1-(3-chlorophenyl)-4-(o-tolyl)pyrazol-3-yl]benzenesulfonamide]	
< 30		Cc1cccc(C)c1-c1cnc(N2CCN(C)CC2)c(NS(=O)(=O)c2ccccc2)n1 [Compound 122, N-[6-(2,6-dimethylphenyl)-3-(4-methylpiperazin-1-yl)pyrazin-2-yl]benzenesulfonamide]	
< 30		O=S(=O)(Nc1ccnn1C1CCCCC1)c1ccccc1 [Compound 79, N-(2-cyclohexylpyrazol-3-yl)benzenesulfonamide]	
< 30		CC(C)Cc1cn(-c2cccc(Cl)c2)nc1NS(=O)(=O)c1ccccc1 [Compound 81, N-[1-(3-chlorophenyl)-4-isobutyl-pyrazol-3-yl]benzenesulfonamide]	
30 to 60	1 to 3	O=S(=O)(Nc1nn(-c2cccc(Cl)c2)cc1C1=CCCCC1)c1ccccc1 [Compound 87, N-[1-(3-chlorophenyl)-4-(cyclohexen-1-yl)pyrazol-3-yl]benzenesulfonamide]	
< 30		Cc1ccc(-c2cn(-c3cccc(Cl)c3)nc2NS(=O)(=O)c2ccccc2)cc1 [Compound 93, N-[1-(3-chlorophenyl)-4-(p-tolyl)pyrazol-3-yl]benzenesulfonamide]	
> 60	1 to 3	C/C=C/c1ccc(NS(=O)(=O)c2ccccc2)nc1-c1ccc(C)cc1 [Compound 148]	
> 60	3 to 30	Cc1cc(NS(=O)(=O)c2ccccc2)nc(-c2cccc(C)c2C)c1 [Compound 154]	
< 30		O=S(=O)(Nc1n[nH]cc1-c1ccccc1)c1ccccc1 [Compound 77, N-(4-phenyl-1H-pyrazol-3-yl)benzenesulfonamide]	
> 60	3 to 30	Cc1cc(NS(=O)(=O)c2ccccc2)nc(-c2ccc(C)cc2C)c1 [Compound 152]	
30 to 60	1 to 3	O=S(=O)(NC1=NC(c2ccccc2)C=C(c2ccccc2)S1)c1ccccc1 (stereo not drawn) [Compound 117, N-(4,6-diphenyl-4H-1,3-thiazin-2-yl)benzenesulfonamide]	
< 30		COc1ccc(-c2cn(Cc3ccccc3)nc2NS(=O)(=O)c2ccccc2)cc1 [Compound 111, N-[1-benzyl-4-(4-methoxyphenyl)pyrazol-3-yl]benzenesulfonamide]	
30 to 60	3 to 30	Cc1cc(C)cc(-c2cc(C)cc(NS(=O)(=O)c3ccccc3)n2)c1 [Compound 151]	
< 30	< 1	COc1ccc(-c2cn(-c3cccc(Cl)c3)nc2NS(=O)(=O)c2ccccc2)cc1 [Compound 90, N-[1-(3-chlorophenyl)-4-(4-methoxyphenyl)pyrazol-3-yl]benzenesulfonamide]	
< 30		CC1CN(c2nc(NS(=O)(=O)c3ccccc3)cc(Oc3ccccc3)n2)C(C)(C)C1 (stereo not drawn) [Compound 129, N-[6-phenoxy-2-(2,2,4-trimethylpyrrolidin-1-yl)pyrimidin-4-yl]benzenesulfonamide]	
